Experimental data as given in US10744114B2, “Use of eupatilin as pharmaceutical composition for prevention and treatment of fibrosis using EMT inhibitory activity” (OSTEONEUROGEN INC., priority 2016, dated 2020).

How the values were obtained:
[1] = test system: bleomycin-induced pulmonary fibrosis; experiment: Fibrosis of lung tissue induced by bleomycin (Masson's trichrome); assay type: in vivo, C57BL/6J mice; conditions: 12 days after bleomycin 40 μg/head
Description: Five-week-old male C57BL/6J mice (weight: 18.2 to 20.5 g) (KOATECH, Korea) were used as experimental animals, and each test group was composed of five experimental animals, as is summarized in Table 1 below.
Pulmonary fibrosis was induced by directly injecting a bleomycin solution into the lungs via the trachea according to the intratracheal instillation (IT) method of Kremer, Laxer and Berkman et al. Specifically, C57BL/6J mice were anesthetized through inhalation with 70% N2O and 30% O2 gas and 1.5% isoflurane, and the skin of the anterior neck thereof was excised and the organs under the muscle thereof were exposed and then carefully excised using ophthalmic surgical scissors. 50 μL of a bleomycin solution in distilled water was directly injected into the lungs all at once via the excised organ using a 1 mL syringe fitted with a 19-gauge injection needle having a blunt tip. […]
Eupatilin was used by being dissolved in a DPBS buffer (containing 1% DMSO), and the amount of eupatilin that was administered was 1 mL/kg, and the dose for each individual was calculated based on the recent body weight thereof 12 days after the administration of bleomycin, eupatilin was forcibly nasally administered once a day (5 times a week) for 1 week using a micropipette. […]

[2] = test system: Col1 (type 1 Collagen), Vim (Vimentin) and Twist; experiment: Real-time RT-PCR of EMT regulators in ONGHEPA1 cells; assay type: cell-based, mouse; conditions: TGF-β + eupatilin 50 μM, 24 hr
Method: Also in order to evaluate whether the effect of eupatilin described above is due to the influence of eupatilin on EMT, for the cells incubated for 24 hr in each test group, the extent of expression of […], for example, Col1 (type 1 Collagen), Vim (Vimentin) and Twist, was measured through real-time RT-PCR.

[3] = Observation of toxic symptoms and death after administration; assay type: in vivo, C57BL/6J mice; conditions: 2 to 3 days after administration, nasal, bleomycin-treated mice
Method: Eupatilin was used by being dissolved in a DPBS buffer (containing 1% DMSO), and the amount of eupatilin that was administered was 1 mL/kg, and the dose for each individual was calculated based on the recent body weight thereof 12 days after the administration of bleomycin, eupatilin was forcibly nasally administered once a day (5 times a week) for 1 week using a micropipette.

[4] = test system: ONGHEPA1 cells; experiment: Global gene expression analysis (RNA-Seq) and target gene analysis; assay type: cell-based, mouse; conditions: 24 hr
Method: For a mechanism for the therapeutic effect on fibrosis, the global gene expression of DMSO-treated ONGHEPA1 cells (a control group), ONGHEPA1 cells in which fibrosis was induced by TGF-β, and ONGHEPA1 cells treated with TGF-β and eupatilin was measured.
The cells were treated with DMSO, TGF-β or eupatilin for 24 hr, and total RNA was isolated to manufacture a library, after which about 10,000 expressed mRNA species in a total transcriptome of 30 Gb were analyzed using an Illumina High-seq sequencer.

Structure (SMILES): COc1ccc(-c2cc(=O)c3c(O)c(OC)c(O)cc3o2)cc1OC [eupatilin, 2-(3,4-dimethoxyphenyl)-5,7-dihydroxy-6-methoxy-chromone]
- inhibition of pulmonary fibrosis ([1]; 20 μg eupatilin nasally once a day for 1 week): inhibited
- inhibition of pulmonary fibrosis ([1]; 40 μg eupatilin nasally once a day for 1 week): more effectively inhibited
- expression of Col1 (type 1 Collagen) [2]: inhibited
- expression of Twist [2]: inhibited
- expression of Vim (Vimentin) [2]: inhibited
- toxic symptoms and occurrence of death [3]: no particularly abnormal symptoms were observed
- expression of Fstl1 ([4]; TGF-β + eupatilin): inhibited to a level of almost zero
- Log2fc A disintegrin-like and metallopeptidase (reprolysin type) with thrombospondin type 1 motif 2 (Adamts2) ([4]; TGF-β vs TGF-β+eupatilin): 2.08
- Log2fc A disintegrin-like and metallopeptidase with thrombospondin type 1 motif 12 (Adamts12) ([4]; TGF-β vs TGF-β+eupatilin): 2.09
- Log2fc AXL receptor tyrosine kinase (Axl) ([4]; TGF-β vs TGF-β+eupatilin): −infinite
- Log2fc Actin alpha 4 (Actn4) ([4]; TGF-β vs TGF-β+eupatilin): infinite
- Log2fc Actin, gamma2 (Actg2) ([4]; TGF-β vs TGF-β+eupatilin): −5.83
- Log2fc ArfGAP with SH3 domain, ankyrin repeat and PH domain 1 (Asap1) ([4]; TGF-β vs TGF-β+eupatilin): −infinite
- Log2fc Aurora kinase A (Aurka) ([4]; TGF-β vs TGF-β+eupatilin): −15.3
- Log2fc BTAF1 RNA polymerase II, B-TFIID transcription factor-associated (Btaf1) ([4]; TGF-β vs TGF-β+eupatilin): −infinite
- Log2fc C-terminal-binding protein 2 (Ctbp2) ([4]; TGF-β vs TGF-β+eupatilin): infinite
- Log2fc Caldesmon 1 (Cald1) ([4]; TGF-β vs TGF-β+eupatilin): infinite
- Log2fc Calreticulin (Calr) ([4]; TGF-β vs TGF-β+eupatilin): −1.74
- Log2fc Calumenin (Calu) ([4]; TGF-β vs TGF-β+eupatilin): infinite
- Log2fc Caveolin 1, Caveolae protein (Cav1) ([4]; TGF-β vs TGF-β+eupatilin): 1.76
- Log2fc Cell cycle associated protein 1 (Caprin1) ([4]; TGF-β vs TGF-β+eupatilin): −infinite
- Log2fc Cell migration inducing protein, hyaluronan binding (Cemip) ([4]; TGF-β vs TGF-β+eupatilin): −2.75
- Log2fc Coatomer protein complex, subunit gamma 1 (Copg1) ([4]; TGF-β vs TGF-β+eupatilin): infinite
- Log2fc Collagen type 1 alpha 1 (Col1a1) ([4]; TGF-β vs TGF-β+eupatilin): −1.64
- Log2fc Collagen type VII alpha1 (Col7a1) ([4]; TGF-β vs TGF-β+eupatilin): −15.2
- Log2fc Collagen type XV, alpha 1 (Col5a1) ([4]; TGF-β vs TGF-β+eupatilin): 2.26
- Log2fc Collagen, type III, alpha 1 (Col3a1) ([4]; TGF-β vs TGF-β+eupatilin): infinite
- Log2fc Collagen, type XI, alpha 1 (Col11a1) ([4]; TGF-β vs TGF-β+eupatilin): −3.11
- Log2fc Collagen, type XII, alpha 1 (Col12a1) ([4]; TGF-β vs TGF-β+eupatilin): 2.02
- Log2fc Colony stimulating factor 1 (macrophage) (Csf1) ([4]; TGF-β vs TGF-β+eupatilin): 2.15
- Log2fc Crystallin, zeta (quinone reductase)-like 1 (Cryzl1) ([4]; TGF-β vs TGF-β+eupatilin): infinite
- Log2fc Cyclin D2 (Ccnd2) ([4]; TGF-β vs TGF-β+eupatilin): 2.29
- Log2fc Dihydropyrimidinase-like 3 (Dpysl3) ([4]; TGF-β vs TGF-β+eupatilin): infinite
- Log2fc Doublecortin-like kinase 1 (Dclk1) ([4]; TGF-β vs TGF-β+eupatilin): 1.54
- Log2fc Dynein cytoplasmic 1 heavy chain 1 (Dync1h1) ([4]; TGF-β vs TGF-β+eupatilin): −infinite
- Log2fc Dysferlin (Dysf) ([4]; TGF-β vs TGF-β+eupatilin): 2.06
- Log2fc EH-domain containing 2 (Ehd2) ([4]; TGF-β vs TGF-β+eupatilin): infinite
- Log2fc Elastin (Eln) ([4]; TGF-β vs TGF-β+eupatilin): 3.28
- Log2fc Endoglin (Eng) ([4]; TGF-β vs TGF-β+eupatilin): −infinite
- Log2fc Endoplasmic reticulum-golgi intermediate compartment 1 (ERGIC1) ([4]; TGF-β vs TGF-β+eupatilin): −1.26
- Log2fc Ephrin B2 (Efnb2) ([4]; TGF-β vs TGF-β+eupatilin): 1.92
- Log2fc Epidermal growth factor-containing fibulin-like extracellular matrix protein 2 (Efemp2) ([4]; TGF-β vs TGF-β+eupatilin): 1.66
- Log2fc Exocyst complex component 4 (Exoc4) ([4]; TGF-β vs TGF-β+eupatilin): 2.9
- Log2fc Family with sequence similarity 175, member B (Fam175b) ([4]; TGF-β vs TGF-β+eupatilin): −infinite
- Log2fc Fibronectin 1 (Fn1) ([4]; TGF-β vs TGF-β+eupatilin): infinite
- Log2fc Fibronectin type III domain containing 1 (Fndc1) ([4]; TGF-β vs TGF-β+eupatilin): 1.75
- Log2fc Follistatin-like 1 (Fstl1) ([4]; TGF-β vs TGF-β+eupatilin): infinite
- Log2fc Fras 1 related extracellular matrix protein 1 (Frem1) ([4]; TGF-β vs TGF-β+eupatilin): 2.36
- Log2fc Heat shock protein 90, alpha (cytosolic), class A member 1(Hsp90aa1) ([4]; TGF-β vs TGF-β+eupatilin): infinite
- Log2fc Heparan sulfate 6-O-sulfotransferase 2 (Hs6st2) ([4]; TGF-β vs TGF-β+eupatilin): 3.26
- Log2fc Importin-4 (Ipo4) ([4]; TGF-β vs TGF-β+eupatilin): −infinite
- Log2fc Inhibition beta-A (Inhba) ([4]; TGF-β vs TGF-β+eupatilin): 2.19
- Log2fc Inositol hexakisphosphate kinase 1 (Ip6k1) ([4]; TGF-β vs TGF-β+eupatilin): −infinite
- Log2fc Integral beta 5 (Itgb5) ([4]; TGF-β vs TGF-β+eupatilin): −infinite
- Log2fc Interleukin 18 receptor accessory protein (Il18rap) ([4]; TGF-β vs TGF-β+eupatilin): 1.69
